Source: patent US20100056468A1, “Pyrimidine Derivatives As Anticancer Agents” (University Health Network, priority 2007, published 2010)
Read-outs that look alike come from different tables or passages of the source.

Experiments:
70Z/3 (murine) = test: WST-1 cell growth assay (Table 3); assay type: cell-based; conditions: Mus musculus, 72 h; 70Z/3 murine B cell leukemia, 3 days
Protocol: (§1) Thirteen C6 substituted nucleoside derivatives were tested against seventeen cancer cell lines in order to understand their anticancer activity potential. Cell growth was measured in 96 well plates (6 replicates per dose) in which 10^4 cells were seeded for 3 days with a range of concentrations of compound Ic and Id using the Roche WST-1 assay (Ishiyama M et al (1995) In Vitro Toxicology 8, 187-189) following manufactures directions.
In a pilot study, first the in vivo effects of compound Ic in a murine tumor model (70Z/3) were studied. This murine model served to provide the baseline for toxicity data in a tumor setting. […] In this pilot study, 10^6 70Z/3 cells were injected into syngeneic mice (C57BL6×DBA/2) after which the mice were treated with compound Ic on days 2, 3, 4, 7, 8, and 9 at doses of 0.15 mg/kg or 1.5 mg/kg or with PBS. Some mice were also treated with the compound alone to test for toxic effects in the absence of tumor growth. On day 10, two mice from each group were euthanized and they were examined for the presence of disease. After 70Z/3 cells are injected they home to the spleen and proliferate causing increased spleen weight and cellularity. […] It would appear from this very small pilot study that mice can tolerate a dose of the drug which is ten times more than a dose which reduces tumor expansion in the spleen (FIG. 4 and Table 2). […]

[1] = test system: PBMC - Peripheral blood mononuclear cells; test: WST-1 cell growth assay on stimulated PBMCs (Table 3); assay type: cell-based, human
CCD967 = test: WST-1 cell growth assay (Table 3); assay type: cell-based; conditions: Homo sapiens, CCD-967, 72 h; CCD967 skin fibroblast line, 3 days
Protocol: as §1

MDA-MB-468 = test: WST-1 cell growth assay (Table 3); assay type: cell-based; conditions: Homo sapiens, 72 h; MDA-MB-468 breast adenocarcinoma, 3 days
Protocol: as §1

OCI MY2 = test: WST-1 cell growth assay (Table 3); assay type: cell-based; conditions: Homo sapiens, 72 h; OCI MY2 myeloma, 3 days
Protocol: as §1

LOX = test: WST-1 cell growth assay (Table 3); assay type: cell-based; conditions: Homo sapiens, 72 h; LOX melanoma, 3 days
Protocol: as §1

COLO205 = test: WST-1 cell growth assay (Table 3); assay type: cell-based; conditions: Homo sapiens, COLO 205, 72 h; COLO205 colorectal adenocarcinoma, 3 days
Protocol: as §1

MCF7 = test: WST-1 cell growth assay (Table 3); assay type: cell-based; conditions: Homo sapiens, 72 h; MCF7 breast adenocarcinoma, 3 days
Protocol: as §1

PC3 = test: WST-1 cell growth assay (Table 3); assay type: cell-based; conditions: Homo sapiens, PC-3, 72 h; PC3 prostate adenocarcinoma, 3 days
Protocol: as §1

OVCAR4 = test: WST-1 cell growth assay (Table 3); assay type: cell-based; conditions: Homo sapiens, OVCAR-4, 72 h; OVCAR4 ovarian adenocarcinoma, 3 days
Protocol: as §1

SKW3 = test: WST-1 cell growth assay (Table 3); assay type: cell-based; conditions: Homo sapiens, 72 h; SKW3 T cell leukemia, 3 days
Protocol: as §1

HS578T = test: WST-1 cell growth assay (Table 3); assay type: cell-based; conditions: Homo sapiens, Hs-578T, 72 h; HS578T breast carcinosarcoma, 3 days
Protocol: as §1

OCI AML2 = test: WST-1 cell growth assay (Table 3); assay type: cell-based; conditions: Homo sapiens, 72 h; OCI AML2 myloid leukemia, 3 days
Protocol: as §1

PPC1 = test: WST-1 cell growth assay (Table 3); assay type: cell-based; conditions: Homo sapiens, PPC-1, 72 h; PPC1 prostate, 3 days
Protocol: as §1

T47D = test: WST-1 cell growth assay (Table 3); assay type: cell-based; conditions: Homo sapiens, 72 h; T47D breast adenocarcinoma, 3 days
Protocol: as §1

OCI LY7 = test: WST-1 cell growth assay (Table 3); assay type: cell-based; conditions: Homo sapiens, 72 h; OCI LY7 B cell lymphoma, 3 days
Protocol: as §1

OCI AML1 = test: WST-1 cell growth assay (Table 3); assay type: cell-based; conditions: Homo sapiens, 72 h; OCI AML1 myloid leukemia, 3 days
Protocol: as §1

SNB19 = test: WST-1 cell growth assay (Table 3); assay type: cell-based; conditions: Homo sapiens, SNB-19, 72 h; SNB19 glioblastoma, 3 days
Protocol: as §1

[2] = test system: leukemia/lymphoma and breast cancer cell lines (AML1, AML2, SKW3, OCI LY7, OCI MY2, MDA-MB-468 and MCF7); test: WST-1 cell growth assay, summary over cell lines; assay type: cell-based; conditions: Homo sapiens, read-out: Inhibition constants (IC50s), range over cell lines
Protocol: as §1

ODCase = conditions: cited from earlier work
[3] = test system: mouse L1210 leukemia cells; conditions: 25 μM, cultured mouse L1210 leukemia cells; cited from earlier work

Work on [N-]=[N+]=Nc1cc(=O)[nH]c(=O)n1[C@@H]1O[C@H](CO)[C@@H](O)[C@H]1O [Id, 6-Azido uridine] yielded an IC50 (70Z/3 (murine)) of 200 nM, an IC50 ([1]; Homo sapiens, volunteer, read-out: IC50) of over 10000 nM and an IC50 ([1]; healthy human PBMCs stimulated with concanavalin A and phorbol myristate acetate, read-out: inhibitory constants (IC50's)) of over 10000 nM. The IC50 (CCD967) was over 4000 nM, the IC50 (MDA-MB-468) was 2500 ± 300 nM and the IC50 (OCI MY2) was 3800 nM. For the same molecule, the IC50 (LOX) was 3800 ± 200 nM, the IC50 (COLO205) was over 4000 nM and the IC50 (MCF7) was 1000 ± 200 nM. It also gave an IC50 (PC3) of over 4000 nM, an IC50 (OVCAR4) of over 4000 nM and an IC50 (SKW3) of 700 ± 100 nM. It also gave an IC50 (HS578T) of over 4000 nM, an IC50 (OCI AML2) of 800 ± 200 nM and an IC50 (PPC1) of over 4000 nM. It also gave an IC50 (T47D) of over 4000 nM, an IC50 (OCI LY7) of 1000 ± 200 nM and an IC50 (OCI AML1) of 700 ± 100 nM. It also gave an IC50 (SNB19) of over 4000 nM and an IC50 [2] of 700 to 3500 nM.

In the case of NC(=O)c1[nH]nc(C2OC(COP(=O)(O)O)C(O)C2O)c1O (stereo not shown) [Pyrazofurin 5′-monophosphate], the Ki (ODCase) is given as 5 nM.

In the case of NC(=O)c1[nH]nc([C@@H]2O[C@H](CO)[C@@H](O)[C@H]2O)c1O [pyrazofurin], the “accumulation of OMP” value [3] is listed as “eight-fold increase”.
